The experiment addresses T1, P. aeruginosa PAO1 ModA (Pseudomonas aeruginosa, UniProt Q9I2N2).
T1 construct: N-terminal His6 tag (pMCSG7) cleaved by TEV protease; E. coli BL21-Gold (DE3); metal-free
Nature of the experiment: isothermal titration calorimetry. The class given is binding. From the text:
isothermal titration calorimetry on P. aeruginosa PAO1 ModA

Like-named read-outs stand apart in the source and are kept apart here.

T1 sequence (Q9I2N2 23-251): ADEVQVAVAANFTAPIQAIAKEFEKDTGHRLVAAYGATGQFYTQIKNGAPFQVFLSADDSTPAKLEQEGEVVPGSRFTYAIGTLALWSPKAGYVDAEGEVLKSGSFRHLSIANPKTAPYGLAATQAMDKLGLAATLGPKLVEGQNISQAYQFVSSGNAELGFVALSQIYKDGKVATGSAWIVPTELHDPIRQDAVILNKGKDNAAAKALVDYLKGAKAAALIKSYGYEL

Consider `[O]=[W](=[O])([OH])[OH]` [WO, tungstate], for which, for the setting “read-out: WO-ModA”, the Kd stood at 1.2 ± 2 nM.

`[O]=[Mo](=[O])([OH])[OH]` [MoO, molybdate]: the Kd (read-out: MoO-ModA) came out at 1 ± 1.3 nM. For `[O]=[Cr](=[O])([OH])[OH]` [CrO, chromate], the Kd (read-out: CrO-ModA) is 927 ± 87.7 nM.

The record behind these values is PMC9171197, “The Impact of Chromate on Pseudomonas aeruginosa Molybdenum Homeostasis” (Frontiers in Microbiology, 2022).
